ChEMBL document CHEMBL1123407, “Synthesis of a new chemically and metabolically stable prostacyclin analogue with high and long-lasting oral activity” (J Med Chem, 1986)

What was measured:
[1] = species on record: Rattus norvegicus; experiment: In vitro inhibition of ADP (1.25 x 10E-6 M)-induced platelet aggregation in rat PRP (wistar); format: functional
[2] = species on record: Homo sapiens; experiment: In vitro inhibition of ADP (0.5 x 10E-6 M)-induced platelet aggregation in human PRP
[3] = species on record: Homo sapiens; experiment: In vitro inhibition of collagen (0.66 ug/mL)-induced platelet aggregation in human PRP; format: functional
[4] = species on record: Homo sapiens; experiment: In vitro inhibition of thrombin (0.1 IU/mL)-induced platelet aggregation in human PRP

Question: With `CCCCC[C@H](O)/C=C/[C@@H]1[C@H]2C/C(=C/CCCC(=O)O)O[C@H]2C[C@H]1O` [EPOPROSTENOL] as the compound, how does the IC50 [1] read?
Answer: 2.6 nM

Question: What about the IC50 [2] of the same compound?
Answer: 0.66 nM

Question: How did the IC50 [3] turn out when `CC#CCC(C)[C@H](O)/C=C/[C@@H]1[C@H]2C/C(=C/CCCC(=O)O)C[C@H]2C[C@H]1O` (stereo not given in full) [ILOPROST] was run?
Answer: 0.39 nM

Question: And the IC50 [1]?
Answer: 11.4 nM

Question: What about the IC50 [2] of the same compound?
Answer: 0.82 nM

Question: What about the IC50 [4] of the same compound?
Answer: 0.39 nM

Question: Which results are given for `CCC#CC[C@H](C)[C@H](O)C#CC1[C@H]2C/C(=C/COCC(=O)O)CC2C[C@H]1O` (stereo not given in full)?
Answer: IC50 [3]: 0.2 nM; IC50 [1]: 3.2 nM; IC50 [2]: 0.64 nM; IC50 [4]: 0.13 nM
